Reference: ChEMBL document CHEMBL1137266, “4-Aminoquinoline melanin-concentrating hormone 1-receptor (MCH1R) antagonists” (Bioorg Med Chem Lett, 2006)

Columns and labels:
[1] = target: T1, Melanin-concentrating hormone receptor 1 (Homo sapiens, UniProt Q99705); experiment: Stimulation of IP3-coupled mobilization of calcium in HEK293 cells expressing MCH-R1; type: functional, cell-based
[2] = target: T2, Melanin-concentrating hormone receptor 2 (Homo sapiens, UniProt Q969V1); experiment: Inhibition of 125I-[Phe13,Tyr19]-MCH binding to human MCH-R2 at 2uM
[3] = target: T1, Melanin-concentrating hormone receptor 1; experiment: Displacement of 125I-[Phe13,Tyr19]-MCH from human MCH-R1
[4] = target: T2, Melanin-concentrating hormone receptor 2; experiment: Displacement of 125I-[Phe13,Tyr19]-MCH from human MCH-R2
[5] = target: T1, Melanin-concentrating hormone receptor 1; experiment: Inhibition of 125I-[Phe13,Tyr19]-MCH binding to human MCH-R1; details: concentration not given here

T1 sequence (Q99705 whole entry): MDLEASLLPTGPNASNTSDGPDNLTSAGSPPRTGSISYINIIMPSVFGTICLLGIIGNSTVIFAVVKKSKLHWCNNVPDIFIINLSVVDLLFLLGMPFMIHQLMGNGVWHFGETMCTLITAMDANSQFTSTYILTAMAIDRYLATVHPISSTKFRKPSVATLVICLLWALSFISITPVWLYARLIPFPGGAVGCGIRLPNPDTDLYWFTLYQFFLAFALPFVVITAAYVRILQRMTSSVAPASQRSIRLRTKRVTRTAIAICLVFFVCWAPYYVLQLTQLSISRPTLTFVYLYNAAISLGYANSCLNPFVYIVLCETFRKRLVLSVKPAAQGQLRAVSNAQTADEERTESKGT
T2 sequence (Q969V1 whole entry): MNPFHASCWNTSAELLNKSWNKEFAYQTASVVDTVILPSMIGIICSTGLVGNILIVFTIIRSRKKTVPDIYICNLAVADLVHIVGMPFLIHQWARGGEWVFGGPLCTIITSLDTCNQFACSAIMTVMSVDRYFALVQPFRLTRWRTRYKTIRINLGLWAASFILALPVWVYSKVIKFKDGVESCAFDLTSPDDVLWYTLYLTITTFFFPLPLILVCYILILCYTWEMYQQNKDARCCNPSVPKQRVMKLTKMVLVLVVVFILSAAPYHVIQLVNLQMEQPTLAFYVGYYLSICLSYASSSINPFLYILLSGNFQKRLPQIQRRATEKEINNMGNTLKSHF

Row | Compound | EC50 [1] [nM] | inhibition [2] [%] | IC50 [3] [nM] | IC50 [4] [nM] | inhibition [5] [%]
1 | Cc1cc(N)c2cc(NC(=O)/C=C/c3ccc(C(F)(F)F)cc3)ccc2n1 | 140 | < 50 | 8 | – | –
2 | CCCc1cc(N)c2cc(NC(=O)NCc3ccc(C(F)(F)F)cc3)ccc2n1 | 380 | < 50 | 38 | – | –
3 | CCCc1cc(NC)c2cc(NC(=O)/C=C/c3ccc(C(F)(F)F)cc3)ccc2n1 | 150 | < 50 | 1.5 | – | –
4 | CCCc1cc(N)c2cc(NC(=O)c3ccc(C(F)(F)F)cc3)ccc2n1 | – | < 50 | 10000 | – | –
5 | CCCc1cc(N2CCCC2)c2cc(NC(=O)/C=C/c3ccc(C(F)(F)F)cc3)ccc2n1 | 2800 | < 50 | 17 | – | –
6 | CCCc1cc(N)c2cc(NC(=O)/C=C/c3ccc(F)cc3)ccc2n1 | 200 | < 50 | 130 | – | –
7 | CCCc1cc(N)c2cc(NC(=O)/C=C/c3ccc(-c4ccccc4)cc3)ccc2n1 | 118 | < 50 | 1.1 | – | –
8 | CCc1cc(N)c2cc(NC(=O)/C=C/c3ccc(C(F)(F)F)cc3)ccc2n1 | 110 | < 50 | 1.2 | – | –
9 | CCCc1cc(N)c2cc(NC(=O)CCc3ccccc3)ccc2n1 | – | < 50 | 8300 | – | –
10 | Nc1cc(C2CCCC2)nc2ccc(NC(=O)/C=C/c3ccc(C(F)(F)F)cc3)cc12 | 68 | < 50 | 0.8 | – | –
11 | CCCc1cc(N)c2cc(NC(=O)/C=C/c3ccc(C)cc3)ccc2n1 | 71 | < 50 | 9 | – | –
12 | CCCc1cc(N)c2cc(NC(=O)/C=C/c3ccc(Cl)c(Cl)c3)ccc2n1 | 990 | < 50 | 60 | – | –
13 | CCCc1cc(N)c2cc(NC(=O)/C=C/c3ccc(OC(C)=O)cc3)ccc2n1 | 630 | < 50 | 95 | – | –
14 | CCCc1cc(N)c2cc(NC(=O)C3CCC(c4ccc(Cl)cc4)CC3)ccc2n1 (stereo not drawn) | 370 | < 50 | 4.4 | – | –
15 | CC(C)(C)c1cc(N)c2cc(NC(=O)/C=C/c3ccc(C(F)(F)F)cc3)ccc2n1 | 29 | < 50 | 0.3 | – | –
16 | CCCc1cc(N)c2cc(NC(=O)/C=C/c3ccc(C(F)(F)F)cc3)ccc2n1 (stereo in doubt; form 3) [listing 1 of 2 here] | – | < 50 | – | – | –
17 | CCCc1cc(N)c2cc(NC(=O)/C=C/c3ccc(SC)cc3)ccc2n1 | 71 | < 50 | 9 | – | –
18 | CCCc1cc(N)c2cc(NC(=O)/C=C/c3ccc(I)cc3)ccc2n1 | 280 | < 50 | 2.3 | – | –
19 | CCCc1cc(OC)c2cc(NC(=O)/C=C/c3ccc(C(F)(F)F)cc3)ccc2n1 | 360 | < 50 | 26 | – | –
20 | CCCc1cc(N)c2cc(NC(=O)/C=C/c3ccc(C(F)(F)F)cc3)ccc2n1 (stereo in doubt; form 1) [listing 1 of 2 here] | – | < 50 | – | – | –
21 | CCCc1cc(N)c2cc(NC(=O)/C=C/c3ccc(C(F)(F)F)cc3)ccc2n1 (stereo in doubt; form 3) [listing 2 of 2 here] | 60 | – | 1.3 | – | –

Row | Compound | EC50 [1] [nM] | inhibition [2] [%] | IC50 [3] [nM] | IC50 [4] [nM] | inhibition [5] [%]
22 | CCCc1cc(N(CC)CC)c2cc(NC(=O)/C=C/c3ccc(C(F)(F)F)cc3)ccc2n1 | – | < 50 | 1100 | – | –
23 | CCCc1cc(N)c2cc(NC(=O)/C=C/c3ccccc3Cl)ccc2n1 | 500 | < 50 | 120 | – | –
24 | CCCc1cc(N)c2cc(NC(=O)/C=C/c3ccc(Br)cc3)ccc2n1 | 93 | < 50 | 4 | – | –
25 | CCCCc1ccc(/C=C/C(=O)Nc2ccc3nc(CCC)cc(N)c3c2)cc1 | 740 | < 50 | 45 | – | –
26 | CCCc1cc(N2CCCCC2)c2cc(NC(=O)/C=C/c3ccc(C(F)(F)F)cc3)ccc2n1 | – | < 50 | > 4000 | – | –
27 | CCCc1cc(NC2CC2)c2cc(NC(=O)/C=C/c3ccc(C(F)(F)F)cc3)ccc2n1 | – | < 50 | 40 | – | –
28 | CCCc1cc(N)c2cc(NCCCc3ccc(C(F)(F)F)cc3)ccc2n1 | 1000 | < 50 | 180 | – | –
29 | CCCc1cc(N)c2cc(NC(=O)CCc3ccc(C(F)(F)F)cc3)ccc2n1 | 120 | < 50 | 13 | – | –
30 | CCCc1cc(NCC)c2cc(NC(=O)/C=C/c3ccc(C(F)(F)F)cc3)ccc2n1 | 340 | < 50 | 4.8 | – | –
31 | CCCc1cc(N)c2cc(NC(=O)/C=C/c3ccc(C(C)(C)C)cc3)ccc2n1 | 910 | < 50 | 22 | – | –
32 | CCCc1cc(N)c2cc(NC(=O)/C=C/c3ccc(C(F)(F)F)cc3)ccc2n1 (stereo in doubt; form 2) [listing 1 of 2 here] | 40 | – | 2 | – | –
33 | CCCc1cc(N(C)C)c2cc(NC(=O)/C=C/c3ccc(C(F)(F)F)cc3)ccc2n1 | 300 | < 50 | 43 | – | –
34 | CCCc1ccc(/C=C/C(=O)Nc2ccc3nc(CCC)cc(N)c3c2)cc1 | 3600 | < 50 | 4 | – | –
35 | CCCCc1cc(N)c2cc(NC(=O)/C=C/c3ccc(C(F)(F)F)cc3)ccc2n1 | 210 | < 50 | 1.5 | – | –
36 | CCCc1cc(N)c2cc(NC(=O)/C=C/c3ccc(Cl)cc3Cl)ccc2n1 | 904 | < 50 | 6.6 | – | –
37 | CCCc1cc(N2CCC2)c2cc(NC(=O)/C=C/c3ccc(C(F)(F)F)cc3)ccc2n1 | 2500 | < 50 | 2.8 | – | –
38 | CCCc1cc(N)c2cc(NC(=O)/C=C/c3ccc([N+](=O)[O-])cc3)ccc2n1 | 310 | < 50 | 20 | – | –
39 | CCCCCc1cc(N)c2cc(NC(=O)/C=C/c3ccc(C(F)(F)F)cc3)ccc2n1 | 90 | < 50 | 1.2 | – | –
40 | CCCc1cc(N)c2cc(NC(=O)/C=C/c3ccc(O)cc3)ccc2n1 | – | < 50 | 1100 | – | –
41 | CCCc1cc(NC2CCC2)c2cc(NC(=O)/C=C/c3ccc(C(F)(F)F)cc3)ccc2n1 | 270 | – | 18 | 960 | –
42 | CCCc1cc(N)c2cc(N(C)C(=O)CCc3ccc(C(F)(F)F)cc3)ccc2n1 | – | < 50 | 1700 | – | –

Row | Compound | EC50 [1] [nM] | inhibition [2] [%] | IC50 [3] [nM] | IC50 [4] [nM] | inhibition [5] [%]
43 | CC(C)c1cc(N)c2cc(NC(=O)/C=C/c3ccc(C(F)(F)F)cc3)ccc2n1 | 160 | < 50 | 2.1 | – | –
44 | Nc1cc(C2CCC2)nc2ccc(NC(=O)/C=C/c3ccc(C(F)(F)F)cc3)cc12 | 250 | < 50 | 2 | – | –
45 | CCCc1cc(N)c2cc(NC(=O)Cc3ccc(C(F)(F)F)cc3)ccc2n1 | – | < 50 | 4000 | – | –
46 | CCCc1cc(N)c2cc(NC(=O)/C=C/c3ccccc3)ccc2n1 | – | < 50 | 1000 | – | –
47 | CCCc1cc(N)c2cc(NC(=O)/C=C/c3ccc(Cl)cc3)ccc2n1 | 96 | < 50 | 6 | – | –
48 | CCCc1cc(N)c2cc(NC(=O)c3ccccc3)ccc2n1 | – | < 50 | – | – | < 50
49 | CCCc1cc(N)c2cc(NC(=O)c3ccc(-c4ccc(C(F)(F)F)cc4)cc3)ccc2n1 | 310 | < 50 | 4.5 | – | –
50 | CCC(C)c1cc(N)c2cc(NC(=O)/C=C/c3ccc(C(F)(F)F)cc3)ccc2n1 (stereo not drawn) | 44 | < 50 | 0.3 | – | –
51 | CC(C)(C)Cc1cc(N)c2cc(NC(=O)/C=C/c3ccc(C(F)(F)F)cc3)ccc2n1 | 110 | < 50 | 5.8 | – | –
52 | CCCc1cc(N)c2cc(NC(=O)c3ccc(-c4ccc(Cl)cc4)cc3)ccc2n1 | 75 | < 50 | 0.7 | – | –
53 | CCCc1cc(N)c2cc(NC(=O)/C=C/c3ccc(C(F)(F)F)cc3)ccc2n1 (stereo in doubt; form 1) [listing 2 of 2 here] | 61 | – | 1.3 | – | –
54 | CCCc1cc(N)c2cc(NC(=O)/C=C/c3ccc(C(F)(F)F)cc3)ccc2n1 (stereo in doubt; form 2) [listing 2 of 2 here] | – | < 50 | – | – | –
55 | CCCc1cc(N)c2cc(NC(=O)/C=C/c3cccc(Cl)c3)ccc2n1 | – | < 50 | 1100 | – | –
56 | Nc1cc(C2CCCCC2)nc2ccc(NC(=O)/C=C/c3ccc(C(F)(F)F)cc3)cc12 | 96 | < 50 | 1.2 | – | –
57 | CCCc1cc(N)c2cc(NC(=O)/C=C/c3ccc(C(C)C)cc3)ccc2n1 | 520 | < 50 | 2.9 | – | –
58 | CCCc1cc(N)c2cc(NC(=O)/C=C/c3ccc(N)cc3)ccc2n1 | – | < 50 | 190 | – | –
59 | Nc1cc(-c2ccccc2)nc2ccc(NC(=O)/C=C/c3ccc(Cl)cc3)cc12 | 6600 | < 50 | 18.5 | – | –
60 | CCCc1cc(N)c2cc(NC(=O)/C=C/c3ccc(CC)cc3)ccc2n1 | 160 | < 50 | 1.4 | – | –
61 | CCCc1cc(O)c2cc(NC(=O)/C=C/c3ccc(C(F)(F)F)cc3)ccc2n1 | – | < 50 | – | – | < 50
62 | CCCc1cc(N)c2cc(C(=O)NCCc3ccc(C(F)(F)F)cc3)ccc2n1 | – | < 50 | 2700 | – | –
